The test system of data set [1] is Trypanosoma cruzi. Put plainly: Antiparasitic activity against epimastigote form of Trypanosoma cruzi Y after 96 hrs by hemocytometry. The data set is classed as functional, organism-based.
A short description of data set [2]: Cytotoxicity against monkey LLC-MK2 cells after 48 hrs by MTT assay. The data set is classed as cell-based, Macaca mulatta. The note with it: rhesus monkey. (In general: Tetrazolium dyes change colour on reduction, which living cells bring about.)
The test system of a further data set is Leishmania amazonensis. Put plainly: Antiparasitic activity against promastigote form of Leishmania amazonensis MHOM/BR/Josefa after 72 hrs by hemocytometry. The data set is classed as functional, organism-based.
Data set [3] can be described thus: Cytotoxicity against mouse J774A1 cells after 48 hrs by MTT assay. The data set is classed as cell-based, J774.A1.
Data set [4] has as its system Trypanosoma cruzi. Put plainly: Antiparasitic activity against trypomastigote form of Trypanosoma cruzi Y infected in LLCMK2 cells assessed as parasite lysis after 24 hrs by Pizzi-Brener method. The data set is classed as functional, organism-based. The following applies: LLC-MK2, 24 h.

pEC50, pIC50: −log10 of the molar value. Where only a bound is given, the exact number is not on record here.

Take `COc1ccc(/C=C/C(=O)/C(C)=C/c2ccccc2)cc1`: the results for the pIC50 with Trypanosoma cruzi [1] and in the data set with Leishmania amazonensis were 4.84 and 4.69, respectively. For the same compound, the values for the CC50 at 48 h in data set [2] and in data set [3] were 93 µM and 51 µM, respectively. Further, the negative-log EC50 (pEC50) in the data set with Trypanosoma cruzi [4] was less than 4.00.

The compound `C[C@@H]1[C@H](O)[C@@H](C)/C=C/C=C/C=C/C=C/C=C/C=C/C=C/[C@H](O[C@@H]2O[C@H](C)[C@@H](O)[C@H](N)[C@@H]2O)C[C@@H]2O[C@](O)(C[C@@H](O)C[C@@H](O)[C@H](O)CC[C@@H](O)C[C@@H](O)CC(=O)O[C@H]1C)C[C@H](O)[C@H]2C(=O)O` [AMPHOTERICIN B] gave a pIC50 with Leishmania amazonensis of 7.22.

On to `C/C(=C\c1ccccc1)C(=O)/C=C/c1ccc(N(C)C)cc1`, for which the figures for the pIC50 in the data set on Trypanosoma cruzi [1] and in the data set with Leishmania amazonensis were 4.88 and 4.70, respectively. Besides, the results for the CC50 at 48 h in data set [2] and in data set [3] were 53 µM and 20.2 µM, respectively. Besides, the pEC50 in the data set on Trypanosoma cruzi [4] is less than 4.00.

For the compound `COc1ccc(/C=C(\C)C(=O)/C=C/c2ccc([N+](=O)[O-])cc2)cc1`, the pIC50 in the data set with Trypanosoma cruzi [1] is 4.60; in the data set on Leishmania amazonensis it was 4.83. In addition, the CC50 at 48 h in data set [2] worked out at 20.1 µM; in data set [3] it was 30 µM. Besides, in the data set on Trypanosoma cruzi [4], the pEC50 was less than 4.00.

For `C/C(=C\c1ccc(N(C)C)cc1)C(=O)/C=C/c1ccc(N(C)C)cc1`, the figures for the pIC50 in the data set on Trypanosoma cruzi [1] and in the data set on Leishmania amazonensis were 4.60 and 4.69, respectively. Besides, the results for the CC50 at 48 h in data set [2] and in data set [3] were 314 µM and 10 µM, respectively. In addition, the pEC50 in the data set on Trypanosoma cruzi [4] was less than 4.00.

Consider `COc1ccc(/C=C/C(=O)/C(C)=C/c2ccc([N+](=O)[O-])cc2)cc1`, for which the pIC50 in the data set on Trypanosoma cruzi [1] was 5.00; with Leishmania amazonensis, 4.81. Further, the CC50 at 48 h was 172 µM in data set [2] and 36.6 µM in data set [3]. Besides, the pEC50 with Trypanosoma cruzi [4] was 4.13.

As for `C/C(=C\c1ccc([N+](=O)[O-])cc1)C(=O)/C=C/c1ccc([N+](=O)[O-])cc1`, the pIC50 is 5.74 in the data set with Trypanosoma cruzi [1] and 5.47 with Leishmania amazonensis. The CC50 at 48 h amounted to 32.5 µM in data set [2] and 43 µM in data set [3]. Moreover, the negative logarithm of the EC50 (pEC50) in the data set on Trypanosoma cruzi [4] was 4.81.

With `C/C(=C\c1ccc([N+](=O)[O-])cc1)C(=O)/C=C/c1ccc(N(C)C)cc1`, the pIC50 was 4.85 in the data set on Trypanosoma cruzi [1] and 4.92 in the data set with Leishmania amazonensis. Besides, the CC50 at 48 h stood at 25.9 µM in data set [2] and 24.7 µM in data set [3]. Further, the pEC50 in the data set on Trypanosoma cruzi [4] is less than 4.00.

Turning to `COc1ccc(/C=C/C(=O)/C(C)=C/c2ccc(OC)cc2)cc1`, the results for the negative logarithm of the IC50 (pIC50) in the data set on Trypanosoma cruzi [1] and with Leishmania amazonensis were 4.63 and 4.66, respectively. Moreover, the values for the CC50 at 48 h in data set [2] and in data set [3] were 75 µM and 34.1 µM, respectively. The pEC50 in the data set on Trypanosoma cruzi [4] was less than 4.00.

With `CC(=O)/C(C)=C/c1ccccc1`, the pIC50 in the data set with Trypanosoma cruzi [1] and with Leishmania amazonensis was less than 4.00 each time. For the same compound, the CC50 at 48 h in data set [2] is 688 µM; in data set [3], 742 µM. In addition, the pEC50 in the data set on Trypanosoma cruzi [4] was less than 4.00.

Consider `CC(=O)/C(C)=C/c1ccc([N+](=O)[O-])cc1`, for which the results for the pIC50 in the data set on Trypanosoma cruzi [1] and in the data set with Leishmania amazonensis were 4.09 and less than 4.00, respectively. The CC50 at 48 h in data set [2] worked out at 266 µM; in data set [3], 70.5 µM. Further, the pEC50 with Trypanosoma cruzi [4] was less than 4.00.

Consider `C/C(=C\c1ccccc1)C(=O)/C=C/c1ccc([N+](=O)[O-])cc1`, for which the values for the pIC50 in the data set on Trypanosoma cruzi [1] and in the data set on Leishmania amazonensis were 4.77 and 4.94, respectively. For the same compound, the figures for the CC50 at 48 h in data set [2] and in data set [3] were 43.3 µM and 26 µM, respectively. For the same compound, the pEC50 in the data set on Trypanosoma cruzi [4] was 4.19.

For `C/C(=C\c1ccc([N+](=O)[O-])cc1)C(=O)/C=C/c1ccccc1`, the pIC50 in the data set on Trypanosoma cruzi [1] is 5.46; in the data set on Leishmania amazonensis, 4.87. The CC50 at 48 h in data set [2] was 264 µM; in data set [3], 47.3 µM. Besides, in the data set with Trypanosoma cruzi [4], the pEC50 was 4.76.

Consider `C/C(=C\c1ccc(N(C)C)cc1)C(=O)/C=C/c1ccc([N+](=O)[O-])cc1`, for which the pIC50 in the data set on Trypanosoma cruzi [1] and in the data set with Leishmania amazonensis was less than 4.00 in each case. The CC50 at 48 h was 167 µM in data set [2] and 967 µM in data set [3]. The pEC50 with Trypanosoma cruzi [4] is less than 4.00.

Consider `C/C(=C\c1ccc(N(C)C)cc1)C(=O)/C=C/c1ccccc1`, for which the pIC50 with Trypanosoma cruzi [1] is 4.62; in the data set with Leishmania amazonensis, 4.67. The CC50 at 48 h worked out at 191 µM in data set [2] and 28.5 µM in data set [3]. Besides, in the data set on Trypanosoma cruzi [4], the negative logarithm of the EC50 (pEC50) is 4.11.

Consider `C/C(=C\c1ccccc1)C(=O)/C=C/c1ccccc1`, for which the pIC50 is 4.80 with Trypanosoma cruzi [1] and 4.82 in the data set on Leishmania amazonensis. The CC50 at 48 h worked out at 33.6 µM in data set [2] and 34.5 µM in data set [3]. For the same compound, the pEC50 in the data set with Trypanosoma cruzi [4] is 4.14.

In data set [2], `O=C(Cn1ccnc1[N+](=O)[O-])NCc1ccccc1` [BENZNIDAZOLE] came in with a CC50 at 48 h of 615 µM.

`CC(=O)/C(C)=C/c1ccc(N(C)C)cc1`: the pIC50 in the data set with Trypanosoma cruzi [1] and in the data set with Leishmania amazonensis was less than 4.00 each time. Besides, the figures for the CC50 at 48 h in data set [2] and in data set [3] were 150 µM and 160 µM, respectively. Moreover, the pEC50 in the data set with Trypanosoma cruzi [4] is less than 4.00.

`COc1ccc(/C=C/C(=O)/C(C)=C/c2ccc(N(C)C)cc2)cc1`: the values for the pIC50 in the data set on Trypanosoma cruzi [1] and with Leishmania amazonensis were less than 4.00 and 4.70, respectively. The results for the CC50 at 48 h in data set [2] and in data set [3] were 285 µM and 34.3 µM, respectively. Moreover, in the data set on Trypanosoma cruzi [4], the negative-log EC50 (pEC50) was less than 4.00.

On to `COc1ccc(/C=C(\C)C(=O)/C=C/c2ccccc2)cc1`, for which the figures for the negative logarithm of the IC50 (pIC50) in the data set with Trypanosoma cruzi [1] and in the data set with Leishmania amazonensis were 4.78 and 4.65, respectively. Moreover, the CC50 at 48 h came out at 44 µM in data set [2] and 54 µM in data set [3]. In the data set on Trypanosoma cruzi [4], the pEC50 is 4.13.

Take `COc1ccc(/C=C(\C)C(=O)/C=C/c2ccc(N(C)C)cc2)cc1`: the pIC50 in the data set on Trypanosoma cruzi [1] is 4.67; in the data set with Leishmania amazonensis, 4.74. Also, the CC50 at 48 h came to 411 µM in data set [2] and 36.2 µM in data set [3]. In addition, the pEC50 with Trypanosoma cruzi [4] was less than 4.00.

`COc1ccc(/C=C(\C)C(C)=O)cc1`: the pIC50 in the data set on Trypanosoma cruzi [1] and in the data set with Leishmania amazonensis was less than 4.00 throughout. Besides, the CC50 at 48 h came out at 280 µM in data set [2] and 240 µM in data set [3]. Further, the pEC50 with Trypanosoma cruzi [4] was less than 4.00.

Broadly, the pIC50 is the IC50 on a negative log10 scale, so that one unit is a factor of ten. The term CC50 denotes the concentration that lowers cell viability or growth by half. What is called pEC50 is the negative decadic logarithm of the EC50, by convention in mol/L.

The values above are taken from ChEMBL document CHEMBL3102765, “Unsymmetrical 1,5-diaryl-3-oxo-1,4-pentadienyls and their evaluation as antiparasitic agents” (Bioorg Med Chem, 2014).
